{
  "source": "paper PMC11939470",
  "about": "“The Cyclic Antimicrobial Peptide C-LR18 Has Enhanced Antibacterial Activity, Improved Stability, and a Longer Half-Life Compared to the Original Peptide” (Antibiotics, 2025)",
  "key": {"[1]": {"system": "E. coli ATCC25922", "test": "Stability in serum, read out by MIC assay", "type": "in vitro ADME", "procedure": "(§1) The MIC test was performed using the method recommended by the National Committee for Clinical Laboratory Standards (NCCLS) Standards and Guidelines, and the method was modified according to the characteristics of antimicrobial peptides. The bacteria were cultured at 37 °C for 16 h, and the microbial suspension was diluted to a final concentration of 5 × 10^5 CFU/mL. Then, 50 µL of bacterial solution was mixed with 50 µL of MHB containing different concentrations peptides (0.5–256 µM) in a 96-well plate. […] The assays were performed three times. Geometric mean MIC represents the average MIC of the peptide against all the tested strains.\n(§2) The stability of LR18 and C-LR18 in protease, serum, and gastrointestinal conditions was determined using MIC assay, as described previously.\nTo detect the stability of peptides in serum, the peptides were mixed with various concentrations of fetal bovine serum and mouse serum solutions, and the final concentrations of serum were 6.25%, 12.5%, 25%, and 50%. The MIC of peptides against E. coli ATCC25922 in the presence of different concentrations of serum was determined. Subsequent steps were the same as for the MIC assay. The assays were performed three times."}, "[2]": {"system": "genomic DNA of E. coli ATCC25922", "test": "DNA binding assay (gel retardation)", "conditions": "100 ng genomic DNA, 1–512 µM peptide, 37 °C 60 min, 0.8% agarose gel", "procedure": "The DNA binding test was performed according to gel retardation experiments described previously. Firstly, genomic DNA was extracted from E. coli ATCC25922 using a DNA extraction kit. A total of 100 ng of genomic DNA was mixed with 1–512 µM peptide in a binding buffer (50 µg/mL of BSA, 1 mM of ethylene diamine tetra-acetic acid, 20 mM of KCl, 10 mM of Tris-HCl (pH = 8.0), 5% glycerol, and 1 mM of dithiothreitol) and incubated at 37 °C for 60 min. Subsequently, the samples were examined using 0.8% agarose gel electrophoresis. Observation and photography were performed in the UVP gel imaging system, and the electrophoresis mobility was analyzed."}, "[3]": {"system": "E. coli ATCC25922", "test": "Stability in artificial gastric and intestinal fluid, read out by MIC assay", "type": "in vitro ADME", "procedure": "as §1, §2\nThe stability in gastrointestinal conditions was also determined. The peptides were diluted in artificial gastric fluid and artificial intestinal fluid, digested in water bath at 37 °C for 0.5 and 1 h, and then inactivated in water bath at 60 °C for 30 min. Then, the PH of the solution was adjusted to 7.0 with 10% Na2CO3. Subsequent steps were the same as for the MIC assay. The assays were performed three times."}, "[4]": {"system": "E. coli ATCC25922", "test": "Membrane permeability assay (propidium iodide uptake, flow cytometry)", "type": "cell-based", "conditions": "1 × MIC (4 μM), 30 min 37 °C, 1 × 10^6 CFU/mL, PBS control 3.25%", "procedure": "The effect of C-LR18 on bacterial membrane permeability was measured using the propidium iodide (PI) uptake assay described in [22]. E. coli ATCC25922 in logarithmic growth phase were adjusted to 1 × 10^6 CFU/mL. C-LR18 was added with the final concentration of 4 μM. The mixtures were incubated for 30 min at 37 °C. […] After eliminating unbound dye by washing twice with PBS, the bacterial cells were detected using a flow cytometer (Ex = 535 nm/Em = 615 nm). The results were analyzed using FlowJo 6.2.1 and GraphPad Prism 5 software."}, "[5]": {"system": "KM mice", "test": "Acute toxicity (LD50) in mice, tail vein", "type": "in vivo", "conditions": "for Number of Animal Deaths (r) / Survival Rate (q): 10 mice", "procedure": "The health status of mice was observed, and the mortality data of 5 groups of mice were recorded. The LD50 and 95% confidence limit of C-LR18 for mice were calculated according to the following formula:LD50 = log − 1[Xm − i(ΣP − 0.5)](3) (4) SX50=i∑pq/n 95% Confidence limits of LD50 = log − 1(log − 1LD50 ± 1.96SX50)(5)\nXm: dose pair value of maximum dose group, i: the difference between the dose pairs of two adjacent groups, P: animal mortality in each group, ΣP: the sum of the mortality of each group of animals, n: number of animals per group, q: survival rate per dose group, […]."}, "[6]": {"system": "E. coli ATCC25922", "test": "Impact of temperature and pH on MIC", "type": "physicochemical", "conditions": "after 100 °C for 30 min, acid treatment (pH4) 1 h, alkali treatment (pH10) 1 h", "procedure": "as §1\nThe impact of temperature on peptides’ antimicrobial activity was also tested."}, "[7]": {"system": "E. coli ATCC25922", "test": "Stability in protease, read out by MIC assay", "type": "in vitro ADME", "conditions": "1 mg/mL papain for 1 h", "procedure": "as §1, §2\nTo detect the stability of peptides in protease, the peptides were diluted in 1 mg/mL of trypsin, pepsin, papain, and protease K, respectively, and incubated at 37 °C for 1 h. Then, the protease in the peptide solutions was inactivated in a water bath at 60 °C for 30 min. Subsequent steps were the same as for the MIC assay. The assays were performed three times."}, "[8]": {"system": "E. coli ATCC25922", "test": "Bactericidal kinetics assay", "type": "cell-based", "conditions": "1 × MIC and 2 × MIC, 1 × 10^6 CFU/mL, 37 °C, dose-dependent, Figure 1f", "procedure": "Bactericidal kinetics assay was performed according to the method outlined by Zhang et al.. […] The mixed solutions were incubated in a shaker at 37 °C. A total of 100 μL of the above mixed solution was absorbed every 20 min and diluted with sterile MH liquid medium, and then 50 μL of bacterial solution was aspirated and evenly coated on the solid MH plate. After incubation at 37 °C for 16–18 h, the bacteria colonies on the plate were counted. The bactericidal kinetics curves of LR18 and C-LR18 against E. coli ATCC25922 were plotted. The experiment was repeated three times."}},
  "note": "Where a SMILES comes first, the peptide text is derived from it. Bridges are numbered along the chain shown (N, C = ends).",
  "data": [
    {"smiles": "CC(C)C[C@@H]1NC(=O)[C@H](CCCNC(=N)N)NC(=O)[C@H](CCCNC(=N)N)NC(=O)[C@H](CC(C)C)NC(=O)[C@H](CC(C)C)NC(=O)[C@H](CCCNC(=N)N)NC(=O)[C@H](CC(C)C)NC(=O)[C@@H]2CCCN2C(=O)[C@H](CCCNC(=N)N)NC(=O)[C@H](CCCNC(=N)N)NC(=O)[C@@H]2CCCN2C(=O)[C@H](CC(C)C)NC(=O)[C@H](CCCNC(=N)N)NC(=O)[C@H](CC(C)C)NC(=O)[C@H](CC(C)C)NC(=O)[C@H](CCCNC(=N)N)NC(=O)[C@H](CCCNC(=N)N)NC(=O)[C@H](CC(C)C)NC(=O)[C@@H](N)CSSC[C@@H](C(=O)O)NC1=O", "note": "[C-LR18] (H-CLRRLLRLPRRPLRLLRRLC-OH; disulfide 1-20; N-terminus and C-terminus assumed)", "values": [
      {"measurement": "increase of MIC", "setting": "[1]; 50% serum or artificial gut solution for 30 min (abstract)", "result": 4, "unit": "fold"},
      {"measurement": "increase of MIC", "setting": "[1]; serum concentration 50%", "result": 4, "unit": "times"},
      {"measurement": "concentration exhibiting DNA-binding ability", "setting": "[2]", "result": 64, "unit": "µM"},
      {"measurement": "increase of MIC", "setting": "[3]; artificial gastric fluid 30 min", "result": 8, "unit": "times"},
      {"measurement": "increase of MIC", "setting": "[3]; artificial intestinal fluid 30 min", "result": 4, "unit": "times"},
      {"measurement": "increase of MIC", "setting": "[3]; artificial intestinal fluid 60 min", "result": 16, "unit": "times"},
      {"measurement": "PI fluorescence of treated cells (PI-A+)", "setting": "[4]", "result": 60.6, "unit": "%"},
      {"measurement": "Number of Animal Deaths (r)", "setting": "[5]; 36 mg/kg tail vein", "result": 0},
      {"measurement": "Survival Rate (q)", "setting": "[5]; 36 mg/kg tail vein", "result": 1},
      {"measurement": "Number of Animal Deaths (r)", "setting": "[5]; 44 mg/kg tail vein", "result": 2},
      {"measurement": "Survival Rate (q)", "setting": "[5]; 44 mg/kg tail vein", "result": 0.8},
      {"measurement": "Number of Animal Deaths (r)", "setting": "[5]; 53 mg/kg tail vein", "result": 5},
      {"measurement": "Survival Rate (q)", "setting": "[5]; 53 mg/kg tail vein", "result": 0.5},
      {"measurement": "Number of Animal Deaths (r)", "setting": "[5]; 64 mg/kg tail vein", "result": 7},
      {"measurement": "Survival Rate (q)", "setting": "[5]; 64 mg/kg tail vein", "result": 0.3},
      {"measurement": "Number of Animal Deaths (r)", "setting": "[5]; 77 mg/kg tail vein", "result": 10},
      {"measurement": "Survival Rate (q)", "setting": "[5]; 77 mg/kg tail vein", "result": 0},
      {"measurement": "95% confidence limit of LD50", "setting": "[5]; Kunming mice, tail vein", "result": "28.0 to 50.1", "unit": "mg/kg"},
      {"measurement": "expansion of MIC", "setting": "[6]", "result": 2, "unit": "times"},
      {"measurement": "change of antibacterial activity after papain", "setting": "[7]", "result": "remained unchanged"},
      {"measurement": "time to complete killing of E. coli ATCC25922", "setting": "[8]", "result": "≤ 100", "unit": "min"}
    ]}
  ]
}
